Assay results as given in ChEMBL document CHEMBL1201862, “PubChem BioAssay data set” (2004).
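Cultured in 96-well plates, cells were exposed to test compound for 48 hours across five concentrations. Here, GI50 denotes the concentration required for 50% inhibition of growth.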 The source made the active and inactive calls. Cut-off read from the data, not from the text of the source: active = GI50 up to about 1.1 µM and inactive = higher.

Key:
Assay in all cases: NCI-60 cell line screen, 48 h
786-0 = tested on: 786-0
A498 = tested on: A498
A549 = tested on: A549
ACHN = tested on: ACHN
BT-549 = tested on: BT-549
CAKI-1 = tested on: CAKI-1
CCRF-CEM = tested on: CCRF-CEM
COLO 205 = tested on: COLO 205
DU-145 = tested on: DU-145
EKVX = tested on: EKVX
HCC 2998 = tested on: HCC 2998
HCT-116 = tested on: HCT-116
HCT-15 = tested on: HCT-15
HL-60 = tested on: HL-60
HOP-62 = tested on: HOP-62
HOP-92 = tested on: HOP-92
HT-29 = tested on: HT-29
Hs-578T = tested on: Hs-578T
IGROV-1 = tested on: IGROV-1
K562 = tested on: K562
KM12 = tested on: KM12
LOX IMVI = tested on: LOX IMVI
M14 = tested on: M14
MCF7 = tested on: MCF7
MDA-MB-231 = tested on: MDA-MB-231
MDA-MB-435 = tested on: MDA-MB-435
MDA-N = tested on: MDA-N
Malme-3M = tested on: Malme-3M
NCI-H226 = tested on: NCI-H226
NCI-H23 = tested on: NCI-H23
NCI-H460 = tested on: NCI-H460
NCI-H522 = tested on: NCI-H522
NCI/ADR-RES = tested on: NCI/ADR-RES
OVCAR-4 = tested on: OVCAR-4
OVCAR-5 = tested on: OVCAR-5
OVCAR-8 = tested on: OVCAR-8
PC-3 = tested on: PC-3
RPMI-8226 = tested on: RPMI-8226
RXF 393 = tested on: RXF 393
SF-295 = tested on: SF-295
SF-539 = tested on: SF-539
SK-MEL-28 = tested on: SK-MEL-28
SK-MEL-2 = tested on: SK-MEL-2
SK-MEL-5 = tested on: SK-MEL-5
SK-OV-3 = tested on: SK-OV-3
SN12C = tested on: SN12C
SNB-19 = tested on: SNB-19
SNB-75 = tested on: SNB-75
SR = tested on: SR
SW-620 = tested on: SW-620
T47D = tested on: T47D
TK-10 = tested on: TK-10
U-251 = tested on: U-251
UACC-257 = tested on: UACC-257
UACC-62 = tested on: UACC-62
UO-31 = tested on: UO-31
MOLT-4 = tested on: MOLT-4
OVCAR-3 = tested on: OVCAR-3
SF-268 = tested on: SF-268

## CC(=O)[C@@H](C)C(=O)N1C(=O)OC[C@@]12[C@@H]1CC[C@@H](C1)C2(C)C
786-0
  GI50: > 100 µM (inactive)
A498
  GI50: > 100 µM (inactive)
A549
  GI50: > 100 µM (inactive)
ACHN
  GI50: > 100 µM (inactive)
BT-549
  GI50: > 100 µM (inactive)
CAKI-1
  GI50: 71.8 µM (inactive)
CCRF-CEM
  GI50: > 100 µM (inactive)
COLO 205
  GI50: > 100 µM (inactive)
DU-145
  GI50: > 100 µM (inactive)
EKVX
  GI50: > 100 µM (inactive)
HCC 2998
  GI50: > 100 µM (inactive)
HCT-116
  GI50: > 100 µM (inactive)
HCT-15
  GI50: > 100 µM
HL-60
  GI50: > 100 µM (inactive)
HOP-62
  GI50: > 100 µM (inactive)
HOP-92
  GI50: > 100 µM (inactive)
HT-29
  GI50: > 100 µM (inactive)
Hs-578T
  GI50: > 100 µM (inactive)
IGROV-1
  GI50: > 100 µM (inactive)
K562
  GI50: > 100 µM (inactive)
KM12
  GI50: > 100 µM (inactive)
LOX IMVI
  GI50: > 100 µM (inactive)
M14
  GI50: > 100 µM (inactive)
MCF7
  GI50: > 100 µM (inactive)
MDA-MB-231
  GI50: > 100 µM (inactive)
MDA-MB-435
  GI50: > 100 µM (inactive)
MDA-N
  GI50: > 100 µM (inactive)
Malme-3M
  GI50: > 100 µM (inactive)
NCI-H226
  GI50: > 100 µM (inactive)
NCI-H23
  GI50: > 100 µM (inactive)
NCI-H460
  GI50: > 100 µM (inactive)
NCI-H522
  GI50: > 100 µM (inactive)
NCI/ADR-RES
  GI50: > 100 µM (inactive)
OVCAR-4
  GI50: > 100 µM (inactive)
OVCAR-5
  GI50: > 100 µM (inactive)
OVCAR-8
  GI50: > 100 µM (inactive)
PC-3
  GI50: > 100 µM (inactive)
RPMI-8226
  GI50: > 100 µM (inactive)
RXF 393
  GI50: > 100 µM (inactive)
SF-295
  GI50: > 100 µM (inactive)
SF-539
  GI50: > 100 µM (inactive)
SK-MEL-28
  GI50: > 100 µM (inactive)
SK-MEL-2
  GI50: > 100 µM (inactive)
SK-MEL-5
  GI50: > 100 µM (inactive)
SK-OV-3
  GI50: > 100 µM (inactive)
SN12C
  GI50: > 100 µM (inactive)
SNB-19
  GI50: > 100 µM (inactive)
SNB-75
  GI50: > 100 µM (inactive)
SR
  GI50: 78.7 µM (inactive)
SW-620
  GI50: > 100 µM (inactive)
T47D
  GI50: > 100 µM (inactive)
TK-10
  GI50: > 100 µM (inactive)
U-251
  GI50: > 100 µM (inactive)
UACC-257
  GI50: > 100 µM (inactive)
UACC-62
  GI50: > 100 µM (inactive)
UO-31
  GI50: > 100 µM (inactive)

## CCC1OC(=O)CC(O)C(C)C(OC2OC(C)CC(N(C)C)C2O)C(CC=O)CC(C)C(=O)/C=C/C2(C)OC2C1C (stereo not drawn)
786-0
  GI50: 17.2 µM (inactive)
A498
  GI50: 25.9 µM (inactive)
A549
  GI50: 49.4 µM (inactive)
ACHN
  GI50: 19.6 µM (inactive)
BT-549
  GI50: 15.1 µM (inactive)
CAKI-1
  GI50: 31.5 µM (inactive)
CCRF-CEM
  GI50: 4.91 µM (inactive)
COLO 205
  GI50: 16.9 µM (inactive)
DU-145
  GI50: 23.2 µM (inactive)
EKVX
  GI50: 15.6 µM (inactive)
HCC 2998
  GI50: > 100 µM (inactive)
HCT-116
  GI50: 15.8 µM (inactive)
HCT-15
  GI50: 18.3 µM
HL-60
  GI50: 12.8 µM (inactive)
HOP-62
  GI50: 25.2 µM (inactive)
HOP-92
  GI50: 27.9 µM (inactive)
HT-29
  GI50: 17.9 µM (inactive)
Hs-578T
  GI50: 32.4 µM (inactive)
IGROV-1
  GI50: 10.3 µM (inactive)
K562
  GI50: 6.76 µM (inactive)
KM12
  GI50: 14.4 µM (inactive)
LOX IMVI
  GI50: 17.3 µM (inactive)
M14
  GI50: 31 µM (inactive)
MCF7
  GI50: 5.47 µM (inactive)
MDA-MB-231
  GI50: 28.3 µM (inactive)
MDA-MB-435
  GI50: 16.8 µM (inactive)
MDA-N
  GI50: 25.8 µM (inactive)
MOLT-4
  GI50: 16.5 µM (inactive)
Malme-3M
  GI50: 21.7 µM (inactive)
NCI-H226
  GI50: 16.3 µM (inactive)
NCI-H23
  GI50: 19 µM (inactive)
NCI-H460
  GI50: > 100 µM (inactive)
NCI-H522
  GI50: 15 µM (inactive)
NCI/ADR-RES
  GI50: 31.2 µM (inactive)
OVCAR-3
  GI50: 22.8 µM (inactive)
OVCAR-5
  GI50: 41.3 µM (inactive)
OVCAR-8
  GI50: 22.4 µM (inactive)
PC-3
  GI50: 26.6 µM (inactive)
RPMI-8226
  GI50: 27 µM (inactive)
RXF 393
  GI50: 17.2 µM (inactive)
SF-268
  GI50: 27.2 µM (inactive)
SF-295
  GI50: 29 µM (inactive)
SF-539
  GI50: 6.62 µM (inactive)
SK-MEL-28
  GI50: 21.4 µM (inactive)
SK-MEL-2
  GI50: 45.2 µM (inactive)
SK-MEL-5
  GI50: 15.2 µM (inactive)
SK-OV-3
  GI50: 27.2 µM (inactive)
SN12C
  GI50: 18 µM (inactive)
SNB-19
  GI50: 16.9 µM (inactive)
SNB-75
  GI50: 19.3 µM (inactive)
SR
  GI50: 13.9 µM (inactive)
SW-620
  GI50: 17 µM (inactive)
T47D
  GI50: 19.9 µM (inactive)
U-251
  GI50: 14.8 µM (inactive)
UACC-257
  GI50: > 100 µM (inactive)
UACC-62
  GI50: 14.1 µM (inactive)
UO-31
  GI50: 23.3 µM (inactive)
